The values that follow come from ChEMBL document CHEMBL1201862, “PubChem BioAssay data set” (2004).

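These data come from cells grown in 96-well plates and exposed to compound for 48 hours at five concentrations. The concentration for 50% growth inhibition is given as GI50.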 Calls of active or inactive are those of the source. Rule as the data show it: active = GI50 up to about 1.1 µM and inactive = higher.

Test in all cases: inhibition of tumour cell growth, NCI panel, 48 h
For test [1], the system named is HOP-62.
The test system of test [2] is A498.
Test [3] concerns HT-29.
The subject of test [4] is RXF 393.
For test [5], the system named is NCI-H226.
Test [6] relates to OVCAR-8.
Test [7] has as its system CCRF-CEM.
Test [8] concerns SF-268.
Test [9] has as its system OVCAR-3.
Test [10] has as its system KM12.
Test [11] concerns SK-MEL-2.
In test [12] the test system is A549.
Test [13] deals with HOP-92.
Test [14] has as its system HCC 2998.
Test [15] deals with NCI/ADR-RES.
In test [16] the test system is EKVX.
The test system of test [17] is HL-60.
Test [18] concerns HCT-116.
Test [19] relates to RPMI-8226.
Test [20] concerns Hs-578T.

For the compound `CN1CCOC(c2ccc(Cl)cc2)O1` (stereo not drawn), the GI50 in [1], in test [2], in [3], in [4], in test [5] and in [6] was > 100 µM (inactive) throughout. Moreover, the GI50 in test [7], in test [8], in test [9], in [10], in test [11] and in test [12] was > 100 µM (inactive) each time. Also, the GI50 in test [13], in test [14], in test [15] and in [16] was > 100 µM (inactive) throughout.
For the compound `CSCCC(NC(=O)C(Cc1ccccc1)NC(=O)CNC(=O)CNC(=O)C(N)Cc1ccc(O)cc1)C(=O)O` (stereo not drawn), the GI50 in [1], in [2], in [3], in test [4], in test [6] and in [7] was > 100 µM (inactive) in each case. For the same compound, the GI50 in [8], in [17], in [9], in [10], in [18] and in test [11] was > 100 µM (inactive) each time. For the same compound, the GI50 in test [12], in test [13], in test [14], in test [15] and in test [16] was > 100 µM (inactive) each time.
For the compound `C[C@@H]1OC(=O)/C(=C\N(C)C)[C@H]2CC(=O)N(CCc3cn(S(=O)(=O)C(F)(F)F)c4ccccc34)C[C@H]12`, the GI50 in [1], in test [2], in test [4], in test [5], in test [19] and in [8] was > 100 µM (inactive) each time. Moreover, the GI50 in test [9], in [10], in [18], in test [11], in test [12] and in test [13] was > 100 µM (inactive) in each case. In addition, the GI50 in [14], in test [15] and in [16] was > 100 µM (inactive) in each case.
On to `CCCNC1=C(C)C(=O)C2=C(C1=O)[C@H](COC(N)=O)[C@]1(OC)[C@@H]3N[C@@H]3CN21`, for which the GI50 is 0.303 µM (active) in test [1]; 2.69 µM (inactive) in test [2]; 9.31 µM (inactive) in test [3]; 12 µM (inactive) in [4]; 6.27 µM (inactive) in [5]; 10 µM (inactive) in test [6]. Moreover, the GI50 in test [19] was 7.18 µM (inactive); in test [7], 3.16 µM (inactive); in test [8], 4.65 µM (inactive); in [17], 0.394 µM (active); in [9], 11.6 µM (inactive); in test [10] it was 8.85 µM (inactive). Moreover, the GI50 in test [18] was 3.69 µM (inactive); in test [11], 9.51 µM (inactive); in test [12], 0.43 µM (active); in [13] it was 8.57 µM (inactive); in [14], 3.79 µM (inactive); in test [15], > 100 µM (inactive). In addition, the GI50 in test [16] is 4.3 µM (inactive).
`O=C1/C(=C2/CCCN2)C(c2ccc[nH]2)=NN1c1ccccc1`: the GI50 in test [2], in [3], in test [4], in test [5], in [6] and in test [19] was > 100 µM (inactive) throughout. Further, the GI50 in [7] was 1.75 µM (inactive); in [8], > 100 µM (inactive); in test [17], > 100 µM (inactive); in test [9], > 100 µM (inactive); in [10], > 100 µM (inactive); in test [18] it was > 100 µM (inactive). For the same compound, the GI50 in test [11], in test [12], in test [13], in test [15] and in test [16] was > 100 µM (inactive) in each case.
For the compound `Cc1ccc(C(C)(C)C[P+](C)(c2ccccc2)c2ccccc2)cc1`, the GI50 is 18.4 µM (inactive) in test [1]; 34.4 µM (inactive) in test [2]; 4.46 µM (inactive) in test [3]; 27.5 µM (inactive) in [4]; 15.6 µM (inactive) in test [5]; 12.7 µM (inactive) in [6]. Also, the GI50 is 1.41 µM (inactive) in [19]; 9.08 µM (inactive) in test [7]; 16.9 µM (inactive) in test [8]; 1.75 µM (inactive) in test [17]; 3.24 µM (inactive) in test [9]; 4.71 µM (inactive) in [10]. In addition, the GI50 was 6.56 µM (inactive) in test [18]; 4.21 µM (inactive) in [11]; 11.6 µM (inactive) in test [12]; 1.97 µM (inactive) in test [13]; 9.73 µM (inactive) in test [14]; > 100 µM (inactive) in test [15]. Moreover, the GI50 in [16] is 38.5 µM (inactive).
With `CC1(C)CC(=O)c2c(nc3c(ccc4ccccc43)c2-c2ccc(NC(=O)CCCCCCCCC(=O)Nc3ccc(-c4c5c(nc6c4ccc4ccccc46)CC(C)(C)CC5=O)cc3)cc2)C1`, the GI50 in test [1], in test [3], in [5], in test [6], in test [19] and in test [7] was > 100 µM (inactive) in each case. Also, the GI50 in test [8], in test [17], in [9], in [10], in [18] and in [11] was > 100 µM (inactive) each time. Also, the GI50 in test [12], in test [15], in test [20] and in [16] was > 100 µM (inactive) in each case.
`CCCC(O)C(NC(=O)CCl)C(=O)O` (stereo not drawn): the GI50 in test [1], in test [2], in [3], in test [4], in [5] and in [6] was > 100 µM (inactive) throughout. The GI50 in test [19], in test [7], in [8], in [17], in [9] and in [10] was > 100 µM (inactive) each time. Besides, the GI50 in test [18], in test [11], in test [12], in [13], in test [14] and in test [15] was > 100 µM (inactive) throughout. For the same compound, the GI50 in test [16] was > 100 µM (inactive).
As to `COc1ccc2c(c1)CC[C@@H]1[C@@H]2CC[C@]2(C)C(=O)/C(=C/c3cc(OC)c(OC)c(OC)c3)C[C@@H]12`, the GI50 in test [1] is 17 µM (inactive); in [2], 59 µM (inactive); in [4], 29.6 µM (inactive); in [19] it was > 100 µM (inactive); in test [8], 0.0149 µM (active); in [17], > 100 µM (inactive). Also, the GI50 was 19.5 µM (inactive) in test [9]; 29 µM (inactive) in [10]; 31.6 µM (inactive) in test [18]; 19 µM (inactive) in test [11]; 40.9 µM (inactive) in [12]; 22.2 µM (inactive) in test [13]. The GI50 was 42.8 µM (inactive) in test [14], 15.4 µM (inactive) in test [15] and 61.2 µM (inactive) in test [16].
Consider `CC(=O)Nc1cccc(/N=N/N(C)C)c1`, for which the GI50 in [1], in test [2], in [3], in [4], in test [5] and in test [6] was > 100 µM (inactive) each time. The GI50 in [19], in test [7], in test [8], in [17], in test [9] and in test [10] was > 100 µM (inactive) each time. For the same compound, the GI50 in test [18], in [11], in test [12], in test [13], in test [14] and in test [15] was > 100 µM (inactive) throughout. Moreover, the GI50 in test [16] is > 100 µM (inactive).
Consider `COc1nc2ccc(COc3ccc(C(=O)NC(CCC(=O)O)C(=O)O)cc3)cc2nc1OC` (stereo not drawn), for which the GI50 in test [1], in [3], in test [4], in [5], in test [19] and in test [7] was > 10 µM (inactive) each time. Further, the GI50 in [8], in [17], in test [9], in [10], in test [11] and in test [12] was > 10 µM (inactive) each time. Also, the GI50 in [13], in [14], in test [20] and in [16] was > 10 µM (inactive) throughout.
